# pIC50: −log10 of the molar value.
# Columns and labels:
# [1] = biological target: T1, catalytic domain of human Bub1 (amino acids 704-1085) (Homo sapiens, UniProt O43683); assay: Bub1 kinase assay (TR-FRET); assay type: biochemical; settings: 10 μM ATP, avg, read-out: Bub1 avg (IC50 [mol/l])
# T1 construct: catalytic domain of human Bub1 (amino acids 704-1085); His6 (N); made in house; host or cells: insect cells (Hi5)
# Description: Bub1-inhibitory activity of compounds of the present invention was quantified employing the Bub1 TR-FRET assay as described in the following paragraphs.
# N-terminally His6-tagged recombinant catalytic domain of human Bub1 (amino acids 704-1085), expressed in insect cells (Hi5) and purified by Ni-NTA affinity chromatography and subsequent size exclusion chromatography, was used as enzyme. As substrate for the kinase reaction the biotinylated peptide biotin-Ahx-VLLPKKSFAEPG (C-terminus in amid form) was used which can be purchased e.g. form the company Biosyntan (Berlin, Germany).
# For the assay 50 nl of a 100fold concentrated solution of the test compound in DMSO was pipetted into a black low volume 384well microtiter plate (Greiner Bio-One, Frickenhausen, Germany), 2 μl of a solution of Bub1 in aqueous assay buffer [50 mM Tris/HCl pH 7.5, 10 mM magnesium chloride (MgCl2), 200 mM potassium chloride (KCl), 1.0 mM dithiothreitol (DTT), 0.1 mM sodium ortho-vanadate, 1% (v/v) glycerol, 0.01% (w/v) bovine serum albumine (BSA), 0.005% (v/v) Trition X-100 (Sigma), 1× Complete EDTA-free protease inhibitor mixture (Roche)] were added and the mixture was incubated for 15 min at 22° C. to allow pre-binding of the test compounds to the enzyme before the start of the kinase reaction. Then the kinase reaction was started by the addition of 3 μl of a solution of adenosine-tri-phosphate (ATP, 16.7 μM=>final conc. in the 5 μl assay volume is 10 μM) and substrate (1.67 μM=>final conc. in the 5 μl assay volume is 1 μM) in assay buffer and the resulting mixture was incubated for a reaction time of 60 min at 22° C. The concentration of Bub1 was adjusted depending of the activity of the enzyme lot and was chosen appropriate to have the assay in the linear range, typical concentrations were in the range of 200 ng/ml. The reaction was stopped by the addition of 5 μl of a solution of TR-FRET detection reagents (0.2 μM streptavidine-XL665 [Cisbio Bioassays, Codolet, France] and 1 nM anti-phosho-Serine antibody [Merck Millipore, cat. #35-001] and 0.4 nM LANCE EU-W1024 labeled anti-mouse IgG antibody [Perkin-Elmer, product no. AD0077, as an alternative a Terbium-cryptate-labeled anti-mouse IgG antibody from Cisbio Bioassays can be used]) in an aqueous EDTA-solution (50 mM EDTA, 0.2% (w/v) bovine serum albumin in 100 mM HEPES pH 7.5).
# The resulting mixture was incubated 1 h at 22° C. to allow the formation of complex between the phosphorylated biotinylated peptide and the detection reagents. Subsequently the amount of phosphorylated substrate was evaluated by measurement of the resonance energy transfer from the Eu-chelate to the streptavidine-XL. Therefore, the fluorescence emissions at 620 nm and 665 nm after excitation at 350 nm was measured in a TR-FRET reader, e.g. a Rubystar or Pherastar (both from BMG Labtechnologies, Offenburg, Germany) or a Viewlux (Perkin-Elmer). The ratio of the emissions at 665 nm and at […] was taken as the measure for the amount of phosphorylated substrate. The data were normalised (enzyme reaction without inhibitor=0% inhibition, all other assay components but no enzyme=100% inhibition).
# [2] = tested on: HeLa; assay: Proliferation assay (crystal violet), HeLa; assay type: cell-based; settings: Homo sapiens, HeLa, 96 h, HeLa cells; 4 days incubation; crystal violet staining; read-out: IC50 inhibition of proliferation, HeLa
# Summary of the method: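 Crystal violet proliferation readout, 4-day compound incubation, 0.001–10 μM, final DMSO 0.5%. Zero-point plate stained at time of dosing set as 0%, untreated control as 100%; IC50 via 4-parameter fit.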
# T1 sequence (O43683 704-1085): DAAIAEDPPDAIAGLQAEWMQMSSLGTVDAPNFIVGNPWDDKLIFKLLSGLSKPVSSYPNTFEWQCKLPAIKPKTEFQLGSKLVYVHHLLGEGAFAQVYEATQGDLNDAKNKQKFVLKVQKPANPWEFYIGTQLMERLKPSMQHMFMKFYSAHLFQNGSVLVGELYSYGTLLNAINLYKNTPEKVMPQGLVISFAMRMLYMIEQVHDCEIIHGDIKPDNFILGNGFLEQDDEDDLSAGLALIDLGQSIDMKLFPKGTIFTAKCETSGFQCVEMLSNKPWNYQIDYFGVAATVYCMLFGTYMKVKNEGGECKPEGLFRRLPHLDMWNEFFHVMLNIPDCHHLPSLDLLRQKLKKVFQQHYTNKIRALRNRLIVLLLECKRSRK
SMILES,pIC50 [1],pIC50 [2]
"Cc1nsc(Nc2cnc(C(F)(F)F)cn2)c1C(=O)Nc1ccc(OC[C@H]2CCN(CC(F)(F)F)C2)nc1 (racemic) [Example 133, 3-Methyl-N-(6-{[(SR)-1-(2,2,2-trifluoroethyl)pyrrolidin-3-yl]methoxy}pyridin-3-yl)-5-{[5-(trifluoromethyl)pyrazin-2-yl]amino}-1,2-thiazole-4-carboxamide]",< 4.70,6.38
"Cc1nsc(Nc2cnc(C(F)(F)F)cn2)c1C(=O)Nc1ccc(C(=O)OC(C)(C)C)cc1 [Example 96, tert-Butyl 4-{[(3-methyl-5-{[5-(trifluoromethyl)pyrazin-2-yl]amino}-1,2-thiazol-4-yl)carbonyl]amino}benzoate]",≤ 4.70,5.96
"Cc1nsc(Nc2cnc(C(F)(F)F)cn2)c1C(=O)Nc1ccc(C(=O)O)cc1 [Example 97, 4-{[(3-Methyl-5-{[5-(trifluoromethyl)pyrazin-2-yl]amino}-1,2-thiazol-4-yl)carbony]-amino}benzoic acid]",5.54,5.00
"Cc1nsc(Nc2ccc(C#N)cn2)c1C(=O)Nc1ccc(C(=O)OC(C)(C)C)cc1 [Example 98, tert-Butyl 4-[({5-[(5-cyanopyridin-2-yl)amino]-3-methyl-1,2-thiazol-4-yl}carbonyl)-amino]benzoate]",≤ 4.70,6.16
"Cc1nsc(Nc2cnc3ccccc3n2)c1C(=O)Nc1cccc(C(=O)NCC(=O)O)c1 [Example 99, N-[3-({[3-Methyl-5-(quinoxalin-2-ylamino)-1,2-thiazol-4-yl]carbonyl}amino)benzoy]-glycine]",5.57,5.00
"COC(=O)CNC(=O)c1cccc(NC(=O)c2c(C)nsc2Nc2cnc3ccccc3n2)c1 [Example 100, Methyl N-[3-({[3-methyl-5-(quinoxalin-2-ylamino)-1,2-thiazol-4-yl]carbonyl}amino)-benzoyl]glycinate]",5.05,5.00
"Cc1nsc(Nc2cnc3ccccc3n2)c1C(=O)Nc1cccc(C(=O)N2CCNCC2)c1 [Example 101, 3-Methyl-N-[3-(piperazin-1-ylcarbonyl)phenyl]-5-(quinoxalin-2-ylamino)-1,2-thiazole-4-carboxamide]",5.12,5.00
"Cc1nsc(Nc2cnc3ccccc3n2)c1C(=O)Nc1cccc(C(=O)N2CCN(C)CC2)c1 [Example 102, 3-Methyl-N-{3-[(4-methylpiperazin-1-yl)carbonyl]phenyl}-5-(quinoxalin-2-ylamino)-1,2-thiazole-4-carboxamide]",4.72,5.00
"Cc1nsc(Nc2cnc3ccccc3n2)c1C(=O)Nc1cccc(C(=O)N[C@@H](CCC(N)=O)C(=O)O)c1 [Example 103, N^2-[3-({[3-Methyl-5-(quinoxalin-2-ylamino)-1,2-thiazol-4-yl]carbonyl}amino)-benzoyl]glutamine]",≤ 4.70,5.00
"Cc1nsc(Nc2cnc3ccccc3n2)c1C(=O)Nc1cccc(C(=O)N[C@H](C(=O)O)[C@@H](C)OC(C)(C)C)c1 [Example 104, O-tert-Butyl-N-[3-({[3-methyl-5-(quinoxalin-2-ylamino)-1,2-thiazol-4-yl]-carbonyl}amino)benzoyl]threonine]",≤ 4.70,5.19
"Cc1nsc(Nc2cnc3ccccc3n2)c1C(=O)Nc1cccc(C(=O)N[C@H](C(=O)O)[C@@H](C)O)c1 [Example 105, N-[3-({[3-methyl-5-(quinoxalin-2-ylamino)-1,2-thiazol-4-yl]carbonyl}amino)-benzoyl]threonine]",4.72,5.00
"Cc1noc(-c2cccc(NC(=O)c3c(C)nsc3Nc3cnc4ccccc4n3)c2)n1 [Example 106, 3-Methyl-N-[3-(3-methyl-1,2,4-oxadiazol-5-yl)phenyl]-5-(quinoxalin-2-ylamino)-1,2-thiazole-4-carboxamide]",≤ 4.70,5.77
"Cc1nsc(Nc2cnc3ccccc3n2)c1C(=O)Nc1cccc(-c2nnc(C(C)(C)C)o2)c1 [Example 107, N-[3-(5-tert-Butyl-1,3,4-oxadiazol-2-yl)phenyl]-3-methyl-5-(quinoxalin-2-ylamino)-1,2-thiazole-4-carboxamide]",≤ 4.70,5.52
"Cc1nsc(Nc2cnc3ccccc3n2)c1C(=O)Nc1cccc(-c2nc(C(C)(C)C)no2)c1 [Example 108, N-[3-(3-tert-Butyl-1,2,4-oxadiazol-5-yl)phenyl]-3-methyl-5-(quinoxalin-2-ylamino)-1,2-thiazole-4-carboxamide]",≤ 4.70,6.04

# The remaining lines, values ahead:
pIC50 [1],pIC50 [2],SMILES
≤ 4.70,5.00,"Cc1nsc(Nc2cnc(C(F)(F)F)cn2)c1C(=O)Nc1ccc(OC2CCNCC2)nc1 [Example 6, 3-Methyl-N-[6-(piperidin-4-yloxy)pyridin-3-yl]-5-{[5-(trifluoromethyl)pyrazin-2-yl]amino}-1,2-thiazole-4-carboxamide]"
≤ 4.70,6.24,"Cc1nsc(Nc2cnc(C(F)(F)F)cn2)c1C(=O)Nc1ccc(OC2CCN(CCF)CC2)nc1 [Example 7, N-(6-{[1-(2-Fluoroethyl)piperidin-4-yl]oxy}pyridin-3-yl)-3-methyl-5-{[5-(trifluoromethyl)pyrazin-2-yl]amino}-1,2-thiazole-4-carboxamide]"
≤ 4.70,6.55,"Cc1nsc(Nc2cnc(C(F)(F)F)cn2)c1C(=O)Nc1ccc(OC2CCN(CC(F)F)CC2)nc1 [Example 8, N-(6-{[1-(2,2-Difluoroethyl)piperidin-4-yl]oxy}pyridin-3-yl)-3-methyl-5-{[5-(trifluoromethyl)pyrazin-2-yl]amino}-1,2-thiazole-4-carboxamide]"
≤ 4.70,6.66,"Cc1nsc(Nc2cnc(C(F)(F)F)cn2)c1C(=O)Nc1ccc(OC2CCN(CC(F)(F)F)CC2)nc1 [Example 9, -Methyl-N-(6-{[1-(2,2,2-trifluoroethyl)piperidin-4-yl]oxy}pyridin-3-yl)-5-{[5-(trifluoromethyl)pyrazin-2-yl]amino}-1,2-thiazole-4-carboxamide]"
≤ 4.70,6.48,"Cc1nsc(Nc2cnc(C(F)(F)F)cn2)c1C(=O)Nc1ccc(OC2CCN(CCC(F)(F)F)CC2)nc1 [Example 10, 3-Methyl-5-{[5-(trifluoromethyl)pyrazin-2-yl]amino}-N-(6-{[1-(3,3,3-trifluoropropyl)-piperidin-4-yl]oxy}pyridin-3-yl)-1,2-thiazole-4-carboxamide]"
≤ 4.70,5.74,"CC(=O)N1CCC(Oc2ccc(NC(=O)c3c(C)nsc3Nc3cnc(C(F)(F)F)cn3)cn2)CC1 [Example 11, N-{6-[(1-Acetylpiperidin-4-yl)oxy]pyridin-3-yl}-3-methyl-5-{[5-(trifluoromethyl)-pyrazin-2-yl]amino}-1,2-thiazole-4-carboxamide]"
≤ 4.70,6.04,"Cc1nsc(Nc2cncc(C(F)(F)F)n2)c1C(=O)Nc1ccc(OC2CCN(C(=O)OC(C)(C)C)CC2)nc1 [Example 12, tert-Butyl 4-[(5-{[(3-methyl-5-{[6-(trifluoromethyl)pyrazin-2-yl]amino}-1,2-thiazol-4-yl)carbonyl]amino}pyridin-2-yl)oxy]piperidine-1-carboxylate]"
≤ 4.70,6.70,"Cc1nsc(Nc2cnc(C(F)(F)F)cn2)c1C(=O)Nc1ccc(OCC2CCN(C(=O)OC(C)(C)C)C2)nc1 (centres unmarked) [Example 109, tert-Butyl 3-{[(5-{[(3-methyl-5-{[5-(trifluoromethyl)pyrazin-2-yl]amino}-1,2-thiazol-4-yl)carbonyl]amino}pyridin-2-yl)oxy]methyl}pyrrolidine-1-carboxylate]"

# Reference: US20170334899A1, “AMINO-SUBSTITUTED ISOTHIAZOLES” (Bayer Pharma Aktiengesellschaft, priority 2014, published 2017)
